# What was measured:
# [1] = In vitro drug release study (dialysis, PBS pH 7.4); type: physicochemical; conditions: PBS pH 7.4, 37 °C, over 96 h, dialysis under sink conditions
# Protocol: Briefly, 1 mL of dl-TPL-lip, CA IX-TPL-lip, CPP33-TPL-lip, TPL-lip, and free TPL solution (0.05 mg/mL) was placed into dialysis tubes with a molecular cut-off of MWCO 12–14 kDa and dialyzed in 10 mL of PBS (pH 7.4) at 37 °C. At predetermined time intervals, 100 μL of release medium was taken out and replaced with equal volume of fresh medium. The concentration of TPL in release medium was then determined by UPLC.
# [2] = Pharmacokinetics study after pulmonary (endotracheal) administration to rats; parameters: species or system Sprague Dawley rats; conditions: rat, in vivo, 0.5 mg/kg
# Protocol: Sprague–Dawley (SD) rats were divided randomly into five groups (n = four per group). Rats were fasted for 12 h before the experiment, but allowed water ad libitum. Free TPL, TPL-lip, CPP33-TPL-lip, CA IX-TPL-lip, and dl-TPL-lip were administered directly via pulmonary delivery using a Microsprayer Aerosolizer Pulmonary Aerosol Kit for Mouse Model PAK-MSA (Penn-Century, Inc. Wyndmoor, PA19038, USA) at a dose of 0.5 mg/kg. Blood samples (0.4 mL) were obtained before dosing and at designated time points (0.083, 0.5, 1, 2, 4, 6, 8, 12 h). The samples were collected into heparinized tube from the suborbital veins and were centrifuged for 10 min at 4,000 rpm. The plasma was analyzed by Agilent 1290 Ultra High Performance Liquid Chromatograph with Agilent 6460 Triple Quadrupole Mass Spectrometer system (UHPLC-QQQ MS/MS, Santa Clara, USA) (Xue et al., [2012]; Zhuang et al., [2013]).
# The TPL pharmacokinetic parameters in […] after endotracheal administration were calculated and summarized by DAS 2.1.1. Statistical analyses for anti-cancer effect study were evaluated by two-way ANOVA with Bonferroni posttests using GraphPad Prism 6 (GraphPad Software, Inc, La Jolla, USA). […]
# 44 Analytical method for pharmacokinetics study
# 45 Hydrocortisone was added (50 μL, 200 ng/mL) as an internal standard (IS) to 0.2
# 46 mL of plasma. The samples were mixed, and extracted with ethyl acetate (750 μL)
# 47 followed by vortexing for 4min and centrifuging for 10min at 8000 rpm. The upper
# 48 organic phase was carefully transferred and e vaporated to dryness in vacuum. The
# 49 residues were dissolved in 100μL methanol and centrifuged at 4000rpm for 10 min,
# 50 then the supernatant was collected and injected into the Agilent 1290 Ultra High
# 51 Performance Liquid Chromatograph with Agilent 6460 Triple Quadrupole Mass
# 52 Spectrometer system (UHPLC-QQQ MS/MS).
# 53 Chromatography conditions: Waters Acquity BEH C18 (2.1×50 mm); Mobile phase
# 54 0.1% formic acid in water: 0.1% formic acid in acetonitrile =80:20 v/v; Flow rate 0.35
# 55 mL/min; Running time 10 min.
# 56 Mass spectrometer conditions: Ion Source Agilent Jet Stream electro spray
# 57 ionization (AJS ESI); Positive mode; Gas Temperature 300 °C; Gas flow rate 8 L/min;
# 58 Nebulizer 40 psi; SheathGasHeater 350°C; SheathGasFlow 8 L/min; Capillary 3500
# 60 Firstly, optimization of mass spectrometry was initiated by automatic tuning of the
# 61 instrument (Figure S1). Method validation was conducted before the sample analysis.
# 62 The specificity of the established method was assessed by comparing the
# 63 chromatograms of blank plasma, blank plasma with TPL, blank plasma with IS, and
# 64 plasma after endotracheal administration (Figure S2). The calibration curve in rat
# 65 plasma was linear over the ranges 10-2500 ng/mL in rat plasma (y=0.375035x +
# 67 accuracy and precision both intra-day and inter-day were less than 10%. The method
# 68 was sufficiently accurate and consistent for proceeding for the biological analysis of
# 69 TPL (Table S1). Therefore, the established method was applied to the analysis of rat
# [3] = parameters: method as in Chen et al., [2012a]; Reno et al., [2015]; Li et al., [2016]; conditions: ref Chen et al., [2012a]; Reno et al., [2015]; Li et al., [2016]; cited from earlier work
# [4] = system: orthotopic lung tumor (A549-Red-FLuc cells); assay: Anti-cancer effect in orthotopic mice model of lung cancer (bioluminescence imaging); type: in vivo, BALB/c nu/nu mice; conditions: pulmonary delivery, 0.3 mg/kg, four doses; control increased ∼6-fold; n = 5
# Protocol: An orthotopic lung tumor-bearing mice model was established as previously reported. Briefly, the male BALB/c nu/nu mice (7–8 weeks) were anesthetized with 5% of chloral hydrate and 100 μL of A549-Red-FLuc cells (2 × 10^6 cells) solution in Matrigel (1:1). Experimental solutions were injected percutaneously into the right lateral thorax of each mouse using a 1 mL syringe with 29-gauge needle. On day seven after tumor cell inoculation, bioluminescence was measured using the IVIS Lumina XR system (Caliper, Hopking, MA) to check the successful establishment of lung cancer. D-luciferin substrate (i.p., 150 mg/kg in 0.9% saline solution) was injected 15 min before bioluminescence imaging. On day 19 after tumor cell inoculation, the mice were sacrificed and lungs were immediately resected.
# On day seven following tumor cells inoculation, the orthothopic lung tumor-bearing mice (n = 30) were grouped into six treatment groups based on equivalent signal intensity of the tumor bioluminescence: Free TPL, TPL-lip, CA IX-TPL-lip, CPP33-TPL-lip, dl-TPL-lip, and control group with saline. […] Tumor growth was monitored weekly by bioluminescence imaging as before, during, and after the TPL treatment. Body weight of the mice was recorded weekly during the course of the study. […]
# The TPL pharmacokinetic parameters in mice after endotracheal administration were calculated and summarized by DAS 2.1.1. […]
# [5] = Sprague-Dawley, inhaled or intranasal, endotracheal administration, plasma TPL, n = 4
smiles,measurement,setting,value
"CC(C)[C@]12O[C@H]1[C@@H]1O[C@]13[C@]1(O[C@H]1C[C@H]1C4=C(CC[C@@]13C)C(=O)OC4)[C@@H]2O [Free TPL, Triptolide]",TPL release profile,[1],rapid release profile
same,AUC(0-inf),[2]; [5],225 ± 63.8 ng·h/mL
same,AUC(0-t),[2]; [5],186 ± 36.5 ng·h/mL
same,Cmax,[2]; [5],188 ± 42.7 ng/mL
same,Tmax,[2]; [5],4.98 min
same,Cmax of TPL in blood compared to liposomal TPL,[2],three-fold higher
same,t1/2,[2],2.98 ± 0.54 H
same,Solubility in water,[3],17 µg/mL
same,Increase of tumors (bioluminescence) on day 31,[4],~3 fold

# Source: publication PMC6058720, “Dual-ligand modified liposomes provide effective local targeted delivery of lung-cancer drug by antibody and tumor lineage-homing cell-penetrating peptide” (Drug Delivery, 2018)
